Tested on: SIRT family mRNA expression
Assay: sirtuin (SIRT family) mRNA expression in rat primary enterocytes, quantitative PCR
Assay type: cell-based
Conditions: 2 μg/ml; enterocytes of chow-fed rats; FIG. 2
Source text: The baseline value for the effects of a high fructose diet on SIRT family mRNA expression is established. The experimental protocols parallel those of Firestein, R., et al., PLoS ONE, 2008; 3(4): e2020. doi:10.1371/journal.pone.0002020 except using Wistar rats. The animals fed ad libitum with water and either a standard chow diet or a high fructose diet. Primary enterocytes are obtained from animals (6 months of age) following sacrifice and rapid harvest of the intestine. The isolated intestine is thoroughly flushed with ice cold PBS.
Total RNA is isolated from primary enterocyte tissue obtained as above, adipose tissue (obtained by biopsy), or liver (obtained by biopsy) using TR1 reagent (Applied Biosystems, Austin, Tex.), according to the manufacturer's guidelines. The resulting total RNA is subjected to DNase treatment using RNase-free DNase (Ambion). The purity of isolated RNA is measured by a NanoDrop spectrophotometer. A set concentration of RNA is reverse transcribed into cDNA using SuperScript II RT, and quantitative PCR is performed on ABI Prism 7500 Sequence Detection System (Applied Biosystems, Carlsbad, Calif.) using SYBR Green PCR Master Mix (Applied Biosystems, Carlsbad, Calif.).
The level of sirtuin mRNA expression is assayed following exposure of rat primary enterocytes to the anthocyanin delphinidin. […]

**Q.** Which “increase of sirtuin gene expression as measured by mRNA levels over control” value does the source give for `Oc1cc(O)c2cc(O)c(-c3cc(O)c(O)c(O)c3)[o+]c2c1` [delphinidin] here?
**A.** Its value is 2-3 fold.
